Reference: PMC12724200 (mSphere, 2025)

test system: M. bovis BCG; assay type: cell-based, Mycobacterium bovis BCG

Row | Structure (SMILES) | Frequency of spontaneously generated drug-resistant colonies
1 | CC[C@@H](CO)NCCN[C@@H](CC)CO [EB, ethambutol] | 4.5 × 10^−6
2 | NNC(=O)c1ccncc1 [INH, isoniazid] | 2.0 × 10^−6
3 | NC[C@H]1O[C@H](O[C@H]2[C@H](O)[C@@H](O[C@H]3O[C@H](CO)[C@@H](O)[C@H](N)[C@H]3O)[C@H](N)C[C@@H]2N)[C@H](O)[C@@H](O)[C@@H]1O [KM, kanamycin] | 6.3 × 10^−6
4 | CO[C@H]1/C=C/O[C@@]2(C)Oc3c(C)c(O)c4c(O)c(c(/C=N/N5CCN(C)CC5)c(O)c4c3C2=O)NC(=O)/C(C)=C\C=C\[C@H](C)[C@H](O)[C@@H](C)[C@@H](O)[C@@H](C)[C@H](OC(C)=O)[C@@H]1C [RFP, rifampicin] | 5.2 × 10^−9
5 | [H]/N=C(/N)N[C@H]1[C@H](O)[C@@H](O)[C@H](O[C@@H]2O[C@@H](C)[C@](O)(C=O)[C@H]2O[C@@H]2O[C@@H](CO)[C@H](O)[C@@H](O)[C@@H]2NC)[C@@H](N/C(N)=N\[H])[C@@H]1O [SM, streptomycin] | 3.1 × 10^−7
